Measurements from ChEMBL document CHEMBL1201862, “PubChem BioAssay data set” (2004).
Active and inactive are the calls of the source.

Columns and labels:
[1] = viability of HCT116 lacking mutant beta-catenin – cell-based, human colon tumor, dose response (AID 1045); assay type: functional;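 further: HCT116 colon tumor cells with beta catenin knocked out; cells exposed to compound for 60 hours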
[2] = viability of PTEN-deleted HCT116 cells – cell-based, HCT116 PTEN knockout, dose response (AID 1047); assay type: functional;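 further: HCT116 colon tumor cells with PTEN knocked out; cells exposed to compound for 60 hours before readout; potency for loss of cell viability measured by luminescence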
Streptococcus = assay: GAS UMAA2166 growth inhibition – luminescence, BacTiterGlo, counter-screen for streptokinase expression inhibitor project, dose response (AID 1915); assay type: functional, organism-based;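 further: potency for reduction of bacterial viability or growth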
[3] = NIH-3T3 fibroblast cytotoxicity, dose response, cytotoxicity control, cell-based, fluorescence, Alamar Blue, secondary assay (AID 2327); assay type: functional;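 further: NIH-3T3 mouse fibroblasts cultured with fluconazole at 8 µg/mL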
[4] = system: Streptococcus sp. 'group A'; assay: Streptococcus pyogenes SK(-)GAS viability under kanamycin – luminescence, BacTiterGlo, confirmation, counter-screen for streptokinase expression inhibitor project, dose response (AID 1900); assay type: functional, organism-based
[5] = fluconazole-exposed Candida albicans growth modulators – fluorescence, retest, confirmation (AID 2467); assay type: functional, cell-based
[6] = target: FAD-linked sulfhydryl oxidase ALR (Homo sapiens, UniProt P55789); assay: ALR-catalysed DTT oxidation blockers – biochemical, H2O2 detection, luminescence, cherry-pick, dose response (AID 493248)
[7] = target: T1, Rac GTPase-activating protein 1 (Homo sapiens, UniProt Q9H0H5); assay: blockers of MgcRacGAP-driven Rac1 GTP hydrolysis – biochemical, ADP Hunter fluorescence, primary and confirmatory, confirmation (AID 624330); assay type: functional
T1 sequence (Q9H0H5 whole entry): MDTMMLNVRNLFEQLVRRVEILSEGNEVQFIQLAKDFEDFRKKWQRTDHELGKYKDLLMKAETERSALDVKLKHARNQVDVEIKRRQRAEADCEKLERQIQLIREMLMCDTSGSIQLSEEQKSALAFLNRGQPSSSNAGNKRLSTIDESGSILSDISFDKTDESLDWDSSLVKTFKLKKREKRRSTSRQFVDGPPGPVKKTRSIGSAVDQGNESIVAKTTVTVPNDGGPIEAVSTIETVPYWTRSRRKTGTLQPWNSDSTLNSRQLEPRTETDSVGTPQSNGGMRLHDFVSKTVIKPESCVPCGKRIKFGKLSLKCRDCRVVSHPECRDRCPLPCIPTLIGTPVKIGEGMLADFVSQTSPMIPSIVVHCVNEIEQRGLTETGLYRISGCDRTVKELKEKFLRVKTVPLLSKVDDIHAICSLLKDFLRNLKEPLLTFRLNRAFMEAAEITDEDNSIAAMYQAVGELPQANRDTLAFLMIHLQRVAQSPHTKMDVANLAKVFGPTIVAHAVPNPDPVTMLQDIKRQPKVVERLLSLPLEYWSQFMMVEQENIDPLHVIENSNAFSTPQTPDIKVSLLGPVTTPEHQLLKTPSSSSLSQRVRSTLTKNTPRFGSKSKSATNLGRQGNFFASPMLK

Streptokinase A = target: T2, Streptokinase A (Streptococcus pyogenes serotype M1, UniProt P10520); assay: viability-normalized secreted streptokinase activity reduction – plasminogen activation absorbance, OD405, dose response (AID 1914); assay type: functional, Streptococcus pyogenes M1 GAS;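 further: secreted streptokinase activity via plasminogen activation per viability signal from cell pellet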
T2 sequence (P10520 whole entry): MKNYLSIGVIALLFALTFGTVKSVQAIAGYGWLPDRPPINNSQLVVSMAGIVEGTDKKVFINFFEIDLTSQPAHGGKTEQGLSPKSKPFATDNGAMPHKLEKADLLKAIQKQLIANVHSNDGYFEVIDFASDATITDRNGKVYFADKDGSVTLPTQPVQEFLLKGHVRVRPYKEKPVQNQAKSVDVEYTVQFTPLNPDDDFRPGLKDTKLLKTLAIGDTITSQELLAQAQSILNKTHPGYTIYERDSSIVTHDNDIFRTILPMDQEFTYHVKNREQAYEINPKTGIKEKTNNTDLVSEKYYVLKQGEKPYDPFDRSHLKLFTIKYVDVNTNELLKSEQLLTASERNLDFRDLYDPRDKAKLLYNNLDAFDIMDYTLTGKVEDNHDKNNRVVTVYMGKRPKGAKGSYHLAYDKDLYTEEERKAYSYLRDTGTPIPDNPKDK

[8] = Trypanosoma cruzi growth suppression in host cells – NIH3T3 host cells, beta-gal luminescence, confirmation (AID 2044); assay type: functional, cell-based;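 further: intracellular parasites grown in NIH/3T3 mouse fibroblasts as host cells; luminescent beta-galactosidase reporter signal from transgenic T. cruzi replicating inside host cells; inhibitors lower the luminescence signal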
[9] = NIH3T3 cell viability loss – ATP luminescence, mouse fibroblasts, counter-screen, dose response (AID 2010); assay type: functional, cell-based;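 further: cells exposed to compound for about 90 hours before reading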
[10] = P. falciparum Dd2 growth inhibitors, dose response, SYBR Green, cherry-picked samples (AID 1159567); assay type: functional, cell-based
[11] = luciferase reporter signal suppression in cells – H4 neuroglioma cells, luminescence, dose response (AID 1990); assay type: functional, cell-based
[12] = Luminescence Cell-Based Dose Response HTS to Identify Inhibitors of 5'UTR Stem-Loop Driven Prion Protein mRNA Translation in H4 Neuroglioblastoma Cells. [Related pubchem assays: 1827 (Project Summary), 1813 (Primary HTS)]; assay type: functional
[13] = alpha-synuclein stem-loop luciferase translation blockers – H4 neuroglioma cells, luminescence, confirmation (AID 1988); assay type: functional, cell-based

FAD-linked sulfhydryl oxidase ALR, sequence (P55789 whole entry): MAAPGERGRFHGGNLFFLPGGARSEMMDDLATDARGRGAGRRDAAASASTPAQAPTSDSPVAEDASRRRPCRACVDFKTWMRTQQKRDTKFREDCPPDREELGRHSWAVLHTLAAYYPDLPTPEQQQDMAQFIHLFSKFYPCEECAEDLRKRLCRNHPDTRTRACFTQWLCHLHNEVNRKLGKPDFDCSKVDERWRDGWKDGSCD

O=C1/C(=C\c2cccnc2)CCc2ccccc21
EC50 [1]: 14.5 µM (active)
EC50 [2]: 15.4 µM (active)

Cc1ccc(NC(=S)c2nc3ccccc3[nH]2)cc1
EC50 [1]: 19.2 µM (active)
EC50 (Streptococcus): 7.64 µM (active)
EC50 [3]: > 160 µM (inactive)
EC50 [2]: 26.3 µM (active)
EC50 [4]: 3.7 µM (active)
EC50 [5]: > 38 µM (not active)

N#Cc1cnn(-c2ccccc2)c1NC(=O)CN1CCN(c2ccccc2)CC1
AC50 [6]: 13.4 µM (active)

C=CCn1c(SCC(=O)c2c(N)n(C)c(=O)n(C)c2=O)nc2sc(CC)cc2c1=O
EC50 [1]: 23.3 µM (active)
EC50 [2]: 26.2 µM (active)

COc1ccc2oc(C(=O)c3ccccc3)c(NC(=O)CN3CCN(C)CC3)c2c1
EC50 [1]: 14.1 µM (active)
EC50 [2]: 15.9 µM (active)

O=C(c1cccc(F)c1)N1CCC(c2nc3ccccc3s2)CC1
AC50 [6]: 0.433 µM (active)

CSCCO/C(O)=C1/Sc2cc(C)ccc2N=C1C
IC50 [7]: 52.9 µM (active)

CCOC(=O)c1c(NC(=O)C2Cc3ccccc3C(=O)O2)sc2c1CCCC2 (stereo unspecified)
EC50 [3]: > 160 µM (inactive)
EC50 [5]: > 38 µM (not active)

COc1cc(Nc2c([N+](=O)[O-])nn(-c3ccc4c(c3)OCCO4)[n+]2[O-])cc(OC)c1
EC50 [1]: 1.78 µM (active)
EC50 (Streptococcus): 19 µM (active)
EC50 [2]: 2.29 µM (active)
EC50 [4]: 2.35 µM (active)
EC50 (Streptokinase A): > 150 µM (not active)

Cc1ccc2[nH]c(CCc3ccc(N)cc3)nc2c1
AC50 [6]: 0.018 µM (active)

COc1ccc(N2C(=O)/C(=C/N(C)C)NC2=S)cc1
IC50 [7]: 75.4 µM (active)

CCOc1ccccc1Oc1c[nH]nc1-c1ccc(O)cc1O
IC50 [7]: 35.5 µM (active)

COc1cccc(N2C(=O)CC(N3CCc4ccccc43)C2=O)c1 (stereo unspecified)
AC50 [6]: 1.21 µM (active)

Cc1ccc(SCCN2CCN(Cc3ccccc3)CC2)cc1
IC50 [7]: 84.8 µM (active)
EC50 [8]: 0.549 µM (active)
EC50 [9]: > 60 µM (not active)

COc1ccc(N2CCN(S(=O)(=O)c3c(C)nc4scc(C)n4c3=O)CC2)cc1
IC50 [7]: 209 µM (active)

COc1ccc(CCNCc2cccc(C(F)(F)F)c2)cc1OC
IC50 [7]: 186 µM (active)

CCn1c(C)nc2cc(C(=O)NN=C(S)Nc3ccc(Cl)cc3Cl)ccc21
EC50 [3]: > 160 µM (inactive)
EC50 [5]: 6.98 µM (active)

O=C(CSc1nc(-c2ccccc2)cs1)Nc1nccs1
EC50 [3]: > 160 µM (inactive)
EC50 [5]: > 38 µM (not active)

O=C(NNC(=O)c1ccccc1O)c1ccc(Cl)c(S(=O)(=O)N2CCCCC2)c1
AC50 [6]: 56.4 µM (active)

CC(C)NC(=S)N/N=C/c1ccc(C(C)(C)C)cc1
EC50 [3]: 91.3 µM (inconclusive)
EC50 [5]: > 38 µM (not active)

O=C(O/N=C1/CCSc2ccccc21)c1ccc(F)cc1
EC50 [3]: 30.1 µM (active)
EC50 [5]: > 38 µM (not active)

CN(C)c1ccc(/C=N/NC(=O)CCc2c[nH]c3ccccc23)cc1
AC50 [6]: 2.11 µM (active)

CCc1sc(N2[C@@H](C#N)[C@@H](c3ccccc3-c3ccccc3)[C@@H]2CO)nc1C
AC50 [10]: 8.33 µM (active)

CC(C)(C)[S@@+]([O-])N1Cc2cc(C(=O)NCCN3CCCC3)nc(-c3cccc(-c4ccc(C#N)cc4)c3)c2[C@H]1CCO
AC50 [10]: 4.66 µM (active)

COc1ccc2c3c([nH]c2c1)[C@@H](CO)N(C(=O)c1cccc(F)c1)CC31CCN(C(=O)c2ccccc2)CC1
AC50 [10]: 5.71 µM (active)

COc1ccccc1NC(=O)N1CCCCN2[C@@H](CO)[C@H](c3ccc(C#CC4CC4)cc3)[C@@H]2C1
AC50 [10]: 5.48 µM (active)

C[C@@H]1CN([C@H](C)CO)C(=O)c2cc(C#Cc3ccccc3F)cnc2O[C@H]1CN(C)C(=O)c1ccc2c(c1)OCO2
AC50 [10]: 3.31 µM (active)

COc1ccc(-c2n(C)c3ccccc3[n+]2CC(=O)OC2CC(C)CCC2C(C)C)cc1 (stereo unspecified)
EC50 [11]: 8.73 µM (active)
EC50 [12]: 10.9 µM (active)
EC50 [3]: 17.4 µM (inconclusive)
EC50 [5]: 0.25 µM (active)
EC50 [13]: 8.61 µM (active)
